Experimental data published in ChEMBL document CHEMBL6083251, “"Pseudosubstrate Envelope"/Free Energy Perturbation-Guided Design and Mechanistic Investigations of Benzothiazole HIV Capsid Modulators with High Ligand Efficiency” (J Med Chem, 2024).
The source made the active and inactive calls. The rule behind the calls is not given here.

Assays:
[1] = C0 in male Sprague-Dawley rat at 2 mg/kg, iv measured upto 24 hrs by LC-MS/MS analysis; type: ADME, organism-based; settings: in vivo
[2] = Subacute toxicity in male Kunming mouse assessed as change in body weight at 50 mg/kg, po administered every other day for 14 days; type: organism-based; settings: in vivo, 336 h, time 14 day
[3] = Subacute toxicity in male Kunming mouse assessed as hypoactivity at 50 mg/kg, po administered every other day for 14 days; type: organism-based; settings: in vivo, 336 h, time 14 day
[4] = Acute toxicity in male Kunming mouse assessed as death at 1000 mg/kg, IG administered via gavage; type: organism-based; settings: in vivo, po
[5] = MRT(0 to infinity) in male Sprague-Dawley rat at 2 mg/kg, iv measured upto 24 hrs by LC-MS/MS analysis; type: ADME, organism-based; settings: in vivo
[6] = Metabolic stability in human liver microsomes assessed as intrinsic clearance at 1 uM incubated for 60 mins by LC-MS/MS analysis; type: ADME, Microsome; settings: read-out: CLH
[7] = molecular target: Structural capsid protein (Human immunodeficiency virus 1) (UniProt Q76129); experiment: Binding affinity to HIV-1 hexameric capsid protein assessed as reduction in NUP153 binding to capsid protein by competition assay based SPR analysis; settings: filed as modulator
[8] = molecular target: Structural capsid protein (Human immunodeficiency virus 1) (UniProt Q76129); experiment: Binding affinity to HIV-1 hexameric capsid protein assessed as reduction in CPSF6 binding to capsid protein by competition assay based SPR analysis; settings: filed as modulator
[9] = Selectivity ratio of EC50 for wild type HIV-1 IIIB infected in human MT4 cells to EC50 for HIV-2 ROD infected in human MT-4 cells assessed as protection against virus-induced cytopathic effect incubated for 5 days by spectrophotometric based MTT assay; type: functional; settings: time 5 day
MT4 = experiment: Cytotoxicity against human MT4 cells assessed as reduction in cell viability incubated for 5 days by spectrophotometric based MTT assay; type: functional; settings: MT4, 120 h, time 5 day
[10] = AUC(0 to t) in male Sprague-Dawley rat at 2 mg/kg, iv measured upto 24 hrs by LC-MS/MS analysis; type: ADME, organism-based; settings: in vivo
[11] = […] bioavailability in male Sprague-Dawley rat at 10 mg/kg measured upto 24 hrs by LC-MS/MS analysis; type: ADME, organism-based; settings: in vivo
[12] = Acute toxicity in female Kunming mouse assessed as convulsion at 1000 mg/kg, IG administered via gavage; type: organism-based; settings: in vivo, po
[13] = Acute toxicity in female Kunming mouse assessed as anorexia at 1000 mg/kg, IG administered via gavage; type: organism-based; settings: in vivo, po
[14] = AUC(0 to infinity) in male Sprague-Dawley rat at 2 mg/kg, iv measured upto 24 hrs by LC-MS/MS analysis; type: ADME, organism-based; settings: in vivo
[15] = Acute toxicity in male Kunming mouse assessed as anorexia at 1000 mg/kg, IG administered via gavage; type: organism-based; settings: in vivo, po
[16] = test system: Human immunodeficiency virus 1; experiment: Antiviral activity against pseudotyped HIV-1 expressing luciferase-reporter transfected in HEK293T cells assessed as viral inhibition at early stage incubated for 48 hrs by Single-round infection assay; type: functional, organism-based
[17] = Apparent volume of distribution in male Sprague-Dawley rat at 2 mg/kg, iv measured upto 24 hrs by LC-MS/MS analysis; type: ADME, organism-based; settings: in vivo, read-out: Vz
[18] = Cmax in male Sprague-Dawley rat at 2 mg/kg, iv measured upto 24 hrs by LC-MS/MS analysis; type: ADME, organism-based; settings: in vivo
[19] = Subacute toxicity in male Kunming mouse assessed as convulsion at 50 mg/kg, po administered every other day for 14 days; type: organism-based; settings: in vivo, 336 h, time 14 day
[20] = Acute toxicity in male Kunming mouse assessed as body weight gain at 1000 mg/kg, IG administered via gavage; type: organism-based; settings: in vivo, po
[21] = Subacute toxicity in male Kunming mouse assessed as pathological damage in spleen at 50 mg/kg, po administered every other day for 14 days by H and E staining based analysis; type: organism-based; settings: in vivo, 336 h, time 14 day
[22] = Selectivity index, ratio of CC50 for human MT4 cells to EC50 for wild type HIV-1 IIIB infected in human MT4 cells; type: toxicity, cell-based; settings: read-out: Selectivity Index
[23] = Acute toxicity in female Kunming mouse assessed as death at 1000 mg/kg, IG administered via gavage; type: organism-based; settings: in vivo, po
[24] = Subacute toxicity in male Kunming mouse assessed as focal lymphocyte infiltration in liver at 50 mg/kg, po administered every other day for 14 days by H and E staining based analysis; type: organism-based; settings: in vivo, 336 h, time 14 day
[25] = Subacute toxicity in male Kunming mouse assessed as hunched posture at 50 mg/kg, po administered every other day for 14 days; type: organism-based; settings: in vivo, 336 h, time 14 day
[26] = Subacute toxicity in male Kunming mouse assessed as animal death at 50 mg/kg, po administered every other day for 14 days; type: organism-based; settings: in vivo, 336 h, time 14 day
[27] = Subacute toxicity in male Kunming mouse assessed as pathological damage in lungs at 50 mg/kg, po administered every other day for 14 days by H and E staining based analysis; type: organism-based; settings: in vivo, 336 h, time 14 day
[28] = Subacute toxicity in male Kunming mouse assessed as scattered lymphocyte infiltration in heart at 50 mg/kg, po administered every other day for 14 days by H and E staining based analysis; type: organism-based; settings: in vivo, 336 h, time 14 day
[29] = Acute toxicity in male Kunming mouse assessed as convulsion at 1000 mg/kg, IG administered via gavage; type: organism-based; settings: in vivo, po
[30] = MRT(0 to t) in male Sprague-Dawley rat at 2 mg/kg, iv measured upto 24 hrs by LC-MS/MS analysis; type: ADME, organism-based; settings: in vivo
[31] = Selectivity index, ratio of CC50 for human MT4 cells to EC50 for HIV-2 ROD infected in human MT-4 cells; type: toxicity, cell-based; settings: read-out: Selectivity Index
[32] = AUC(0 to infinity) in male Sprague-Dawley rat at 10 mg/kg, sc measured upto 24 hrs by LC-MS/MS analysis; type: ADME, organism-based; settings: in vivo
[33] = Half life in male Sprague-Dawley rat at 10 mg/kg, sc measured upto 24 hrs by LC-MS/MS analysis; type: ADME, organism-based; settings: in vivo
[34] = molecular target: Structural capsid protein (Human immunodeficiency virus 1, UniProt Q76129); experiment: Binding affinity to hexameric HIV-1 NL4.3 capsid protein assessed as dissociation constant by SPR assay
[35] = AUC(0 to t) in male Sprague-Dawley rat at 10 mg/kg, sc measured upto 24 hrs by LC-MS/MS analysis; type: ADME, organism-based; settings: in vivo
[36] = Tmax in male Sprague-Dawley rat at 10 mg/kg, sc measured upto 24 hrs by LC-MS/MS analysis; type: ADME, organism-based; settings: in vivo
[37] = Half life in male Sprague-Dawley rat at 2 mg/kg, iv measured upto 24 hrs by LC-MS/MS analysis; type: ADME, organism-based; settings: in vivo
[38] = Metabolic stability in human liver microsomes assessed as half life at 1 uM incubated for 60 mins by LC-MS/MS analysis; type: ADME, Microsome
[39] = Subacute toxicity in male Kunming mouse assessed as body jerks at 50 mg/kg, po administered every other day for 14 days; type: organism-based; settings: in vivo, 336 h, time 14 day
[40] = MRT(0 to infinity) in male Sprague-Dawley at 10 mg/kg, sc measured upto 24 hrs by LC-MS/MS analysis; type: ADME, organism-based; settings: rat, in vivo
[41] = molecular target: Human immunodeficiency virus type 1 reverse transcriptase (Human immunodeficiency virus 1) (UniProt Q72547); experiment: Inhibition of HIV1 reverse transcriptase at 6 nM incubated for 1 hr by ELISA analysis

Sequence of Structural capsid protein (Human immunodeficiency virus 1) (Q76129 as listed by the source): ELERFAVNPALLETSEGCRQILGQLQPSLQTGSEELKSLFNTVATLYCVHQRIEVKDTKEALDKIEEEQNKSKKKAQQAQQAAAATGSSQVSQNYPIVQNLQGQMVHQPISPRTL
Sequence of Structural capsid protein (Q76129 whole entry): as the sequence (Q76129 as listed by the source) above

CN(C(=O)[C@H](Cc1cc(F)cc(F)c1)NC(=O)Cc1c[nH]c2ccc(O)cc12)c1ccc2scnc2c1
C0 at 24 h [1]: 33.7 ng/mL | Activity [2]: Non-toxic | Activity [3]: Non-toxic | Activity [4]: Non-toxic | MRT inf [5]: 12.1 min | CLint scaled at 1 µM [6]: 15.2 mL/min/kg | Activity [7]: Active | Activity [8]: Active | Ratio EC50 [9]: 0.03 | CC50 (MT4): 133 µM | AUC(0-t) at 24 h [10]: 5.53 ng·h/mL | bioavailability [11]: 84.2% | Activity [12]: Non-toxic | Activity [13]: Non-toxic | AUC(0-inf) [14]: 7.77 ng·h/mL | Activity [15]: Non-toxic | Activity [16]: Active | Vd [17]: 72.9 L/kg | Cmax [18]: 18.8 ng/mL | Activity [19]: Non-toxic | Activity [20]: Non-toxic | Activity [21]: Non-toxic | selectivity ratio [22]: 49400 | Activity [23]: Non-toxic | Activity [24]: Toxic | Activity [25]: Non-toxic | Activity [26]: Non-toxic | Activity [27]: Non-toxic | Activity [28]: Non-toxic | Activity [29]: Non-toxic | MRT last at 24 h [30]: 7.74 min | selectivity ratio [31]: 1360 | AUC(0-inf) [32]: 33.6 ng·h/mL | half-life [33]: 220 min | Kd [34]: 24.6 nM | AUC(0-t) at 24 h [35]: 23.3 ng·h/mL | Tmax [36]: 1.33 h | half-life [37]: 11.9 min | half-life at 1 µM [38]: 91.3 min | Activity [39]: Non-toxic | MRT inf [40]: 5.85 h | inhibition [41]: inactive
